Drawing on patent US12414961B2, “Substituted nucleosides and nucleotides for treating viral infections” (priority 2013, dated 2025), this text covers CC50 and EC50 for seven compounds.

A short description of data set [1]: Cytotoxicity in Vero cells (Dengue assay). The settings on record: African green monkey.
Data set [2] is described as follows: Cytotoxicity (CC50) HepG2. The settings on record: human, HepG2 cells.
Data set [3] is described as follows: Cytotoxicity (CC50) BxPC3. The conditions noted are these: human, BxPC3 cells.
The nature of data set [4]: Cytotoxicity in Huh-7 cells (Dengue assay). The settings on record: human, Huh-7 cells.
The next data set in a line: Cytotoxicity (CC50) CEM. The settings on record: human, CEM cells.
In data set [5] the test system is Dengue Type 2. The experiment in a line: Anti-Dengue virus cytoprotection assay, Huh-7 cells. The settings on record: Huh-7, read-out: Dengue Type 2 Huh-7 Cells (EC50 uM).
Data set [6] is described as follows: Cytotoxicity (CC50) Huh-7. The conditions noted are these: human, Huh-7 cells.
The subject of another data set is IEC-6. Nature of the data set: Cytotoxicity (CC50) IEC-6. Type of data set: cell-based. The conditions noted are these: IEC-6.
The next data set has as its system HepG2. The experiment in a line: Cytotoxicity (CC50) HepG2. The settings on record: read-out: Cytotoxicity (CC50 uM) HepG2; HepG2.
In a further data set the test system is BxPC3. The experiment in a line: Cytotoxicity (CC50) BxPC3. The settings on record: read-out: Cytotoxicity (CC50 uM) BxPC3; BxPC3.
The test system of a further data set is CEM. The experiment in a line: Cytotoxicity (CC50) CEM. The settings on record: read-out: Cytotoxicity (CC50 uM) CEM; CEM.
For a further data set, the system named is Huh-7. The experiment in a line: Cytotoxicity (CC50) Huh-7. The settings on record: read-out: Cytotoxicity (CC50 uM) Huh-7; Huh-7.
The next data set has as its system H9c. The experiment in a line: Cytotoxicity (CC50) H9c. Type of data set: cell-based. The settings on record: H9c.
Another data set relates to A204. The experiment in a line: Cytotoxicity (CC50) A204. The conditions noted are these: A204. Type of data set: cell-based.
Data set [7] can be described thus: Cytotoxicity (CC50) IEC-6. Type of data set: cell-based. The settings on record: rat, IEC-6 cells.
The subject of data set [8] is Dengue Type 2. The experiment in a line: Anti-Dengue virus cytoprotection assay, Vero cells. The settings on record: read-out: Dengue Type 2 Vero Cells (EC50 uM).
The next data set in a line: Cytotoxicity (CC50) H9c. Type of data set: cell-based. The conditions noted are these: rat, H9c cells.
A short description of another data set: Cytotoxicity (CC50) A204. Type of data set: cell-based. The settings on record: human, A204 cells.
Data set [9] deals with Huh-7 cells. The experiment in a line: Cytotoxicity in Huh-7 cells (Dengue assay). The conditions noted are these: read-out: CC50 uM; Cell Line Huh-7; […], 3, 4 table.
The nature of data set [10]: Cytotoxicity in PBM cells. Type of data set: cell-based. The settings on record: human, peripheral blood mononuclear cells (PBMCs), PHA-P stimulated; beside HIV.
In a further data set the test system is MRC-5 Cells. The experiment in a line: Cytotoxicity in MRC-5 cells (HCMV, VZV assays). The settings on record: beside VZV. It counts as cell-based.
Data set [11] is described as follows: Cytotoxicity in MRC-5 cells (HCMV, VZV assays). Type of data set: cell-based. The conditions noted are these: human, MRC-5 cells; beside HCMV.
In the next data set the test system is HCMV. Nature of the data set: HCMV antiviral assay. Type of data set: cell-based. The conditions noted are these: Human betaherpesvirus 5.
Another data set concerns HSV-1. The experiment in a line: HSV-1 antiviral assay. Type of data set: cell-based. The settings on record: Human alphaherpesvirus 1.
The subject of the next data set is Adenovirus. Nature of the data set: Adenovirus antiviral assay. Type of data set: cell-based. The conditions noted are these: unidentified adenovirus.
In data set [12] the test system is Huh-7 cells. Nature of the data set: Cytotoxicity in Huh-7 cells (Adenovirus, HSV-1 assays). It counts as cell-based, human. The conditions noted are these: beside HSV-1.
A further data set relates to HIV. Nature of the data set: HIV infected PBMC assay. It counts as cell-based. The conditions noted are these: Human immunodeficiency virus 1, PBMC. As to the method: Fresh human peripheral blood mononuclear cells (PBMCs) were obtained from a commercial source (Biological Specialty) and were determined to be seronegative for HIV and HBV. Depending on the volume of donor blood received, the leukophoresed blood cells were washed several times with PBS. After washing, the leukophoresed blood was diluted 1:1 with Dulbecco's phosphate buffered saline (PBS) and layered over 15 mL of Ficoll-Hypaque density gradient in a 50 ml conical centrifuge tube. These tubes were centrifuged for 30 min at 600 g. Banded PBMCs were gently aspirated from the resulting interface and washed three times with PBS. […] After incubation, PBMCs were centrifuged and resuspended in tissue culture medium. The cultures were maintained until use by half-volume culture changes with fresh IL-2 containing tissue culture medium every 3 days. […]
Following addition of test compound to the wells, 50 uL of a predetermined dilution of HIV virus (prepared from 4× of final desired in-well concentration) was added, and mixed well. […] After 7 days in culture, HIV-1 replication was quantified in the tissue culture supernatant by measurement of reverse transcriptase (RT) activity. […]
Reverse Transcriptase Activity Assay—Reverse transcriptase activity was measured in cell-free supernatants using a standard radioactive incorporation polymerization assay. […]

For a further data set, the system named is VZV. Nature of the data set: VZV antiviral assay. It counts as cell-based. The settings on record: Human alphaherpesvirus 3.
Data set [13] in a line: Cytotoxicity in HepG2 cells (HBV assay). It counts as cell-based. The conditions noted are these: human, HepG2.2.15 cells; beside HBV. The method, then: The 50% cytotoxic concentration for the test materials are derived by measuring the reduction of the tetrazolium dye XTT in the treated tissue culture plates. XTT is metabolized by the mitochondrial enzyme […] to a soluble formazan product in metabolically active cells. […] The 2-4 hour incubation has been empirically determined to be within linear response range for XTT dye reduction with the indicated numbers of cells for each assay. […] Data were collected by Softmax 4.6 software and imported into an Excel spreadsheet for analysis.

The subject of another data set is HBV. The experiment in a line: HBV antiviral assay. It counts as cell-based. The settings on record: Hepatitis B virus. As to the method: Ten microliters of cell culture supernatant collected on the sixth day was diluted in qPCR dilution buffer (40 μg/mL sheared salmon sperm DNA) and boiled for 15 minutes. Quantitative real time PCR was performed in […] using an Applied Biosystems 7900HT Sequence Detection System and the supporting SDS 2.4 software. Five microliters (5 μL) of boiled DNA for each sample and serial 10-fold dilutions of a quantitative DNA standard were subjected to real time Q-PCR using Platinum Quantitative PCR SuperMix-UDG (Invitrogen) and specific DNA oligonucleotide primers (IDT, Coralville, […]) HBV-AD38-qF1 (5′-[…] -3′) (SEQ ID NO: 1), HBV-AD38-qR1 (5′-AGT CCA AGA GTY CTC TTA TRY AAG ACC TT-3′) (SEQ ID NO: 2), and HBV-AD38-qP1 (5′-FAM CCG TGT GCA/ZEN/[…] -3′BHQ1) (SEQ ID NO: 3) at a final concentration of 0.2 μM for each primer in a total reaction volume of 15 μL. The HBV DNA copy number in each sample was interpolated from the standard curve by the SDS.24 software and the data were imported into an Excel spreadsheet for analysis.

Each structure is given as a SMILES string.

As a reminder, the CC50 is the concentration giving 50% cytotoxicity. Broadly, the EC50 is the concentration giving half of the maximal effect.

`CC1(O)[C@@H](O)[C@@H](CO)O[C@H]1n1ccc(=O)[nH]c1=S` (some centres unmarked): the CC50 was greater than 100 µM in data set [1]; greater than 400 µM in data set [2]; greater than 100 µM in data set [3]; greater than 100 µM in data set [4]; greater than 200 µM in the data set “Cytotoxicity (CC50) CEM”; greater than 100 µM in [6]. In the data set with Dengue Type 2 [5], the EC50 was greater than 100 µM.
Turning to `CC(C)OC(=O)[C@H](C)NP(=O)(OC[C@H]1O[C@@H](n2ccc(=O)[nH]c2=S)[C@](C)(O)C1O)Oc1ccccc1` (some centres unmarked) [drawing 366], the CC50 in the data set with IEC-6 is greater than 200 µM; in the data set on HepG2 it was greater than 400 µM; with BxPC3, greater than 300 µM; in the data set with CEM, greater than 300 µM; with Huh-7 it was greater than 400 µM; in the data set on H9c, greater than 200 µM. The compound also registered a CC50 with A204 of 98 µM.
Turning to `CC(C)OC(=O)[C@H](C)NP(=O)(OC[C@H]1O[C@@H](n2ccc(=O)[nH]c2=S)[C@](C)(O)C1O)Oc1ccccc1` (some centres unmarked) [drawing 369], the CC50 is greater than 200 µM with IEC-6, greater than 300 µM with BxPC3 and 98 µM in the data set on A204.
For the compound `CC(C)OC(=O)[C@H](C)NP(=O)(OC[C@H]1O[C@@H](n2ccc(=O)[nH]c2=S)C(C)(O)[C@H]1O)Oc1ccccc1` (some centres unmarked) [drawing 387], the CC50 in [1] is greater than 100 µM; in [7], greater than 200 µM; in [2], greater than 400 µM; in data set [3], greater than 300 µM; in data set [4], greater than 100 µM; in the data set “Cytotoxicity (CC50) CEM” it was greater than 300 µM. The CC50 in data set [6] is greater than 400 µM; in “Cytotoxicity (CC50) H9c”, greater than 200 µM; in the data set “Cytotoxicity (CC50) A204” it was 98 µM. The EC50 in the data set with Dengue Type 2 [5] is 5.1 µM; in the data set on Dengue Type 2 [8] it was 2.02 µM.
For the compound `CC(C)OC(=O)[C@H](C)N[P@](=O)(OC[C@H]1O[C@@H](n2ccc(=O)[nH]c2=S)C(C)(O)[C@H]1O)Oc1ccccc1` (some centres unmarked) [drawing 388], the CC50 in data set [1] is greater than 100 µM; in [2], greater than 400 µM; in data set [4], greater than 100 µM; in “Cytotoxicity (CC50) CEM” it was greater than 400 µM; in data set [6] it was 252 µM. The EC50 is 5.62 µM with Dengue Type 2 [5] and 2.35 µM in the data set on Dengue Type 2 [8].
Consider `CC(C)OC(=O)[C@H](C)N[P@](=O)(OC[C@H]1O[C@@H](n2ccc(=O)[nH]c2=S)C(C)(O)[C@H]1O)Oc1ccccc1` (some centres unmarked) [drawing 393], for which, in the data set on Huh-7 cells [9], the CC50 was greater than 100 µM.
Compound `CC(C)OC(=O)[C@H](C)NP(=O)(OC[C@H]1O[C@@H](n2ccc(=O)[nH]c2=S)C(C)(O)[C@H]1O)Oc1ccccc1` (some centres unmarked) [drawing 394] returned a CC50 at 7 days in data set [10] greater than 100 µM. The CC50 (in the data set on MRC-5 Cells; in data set [11]; in the data set on Huh-7 cells [12]) was greater than 100 µM in each case. Moreover, the EC50 in the data set with HCMV, in the data set on HSV-1, with Adenovirus, in the data set with HIV, in the data set on VZV and in the data set with HBV was greater than 100 µM throughout. In data set [13], this compound came in with a CC50 at 6 days greater than 100 µM.
